PubChem BioAssay (NCI)
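Compound exposure: 48 hours, 5 concentrations, 96-well plates. GI50 = concentration required for 50% inhibition of growth. TGI is the concentration that stops growth completely.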

Columns and labels:
Test in all cases: DTP human tumour cell line panel, 48 h
[1] = system: CCRF-CEM leukemia
[2] = system: BT-549 breast
[3] = system: SR leukemia
[4] = system: DU-145 prostate
[5] = system: SF-295 CNS
[6] = system: M14 melanoma

SMILES	GI50 [1] [µM]	TGI [1] [µM]	GI50 [2] [µM]	TGI [2] [µM]	GI50 [3] [µM]	TGI [3] [µM]	GI50 [4] [µM]	TGI [4] [µM]	GI50 [5] [µM]	TGI [5] [µM]	GI50 [6] [µM]	TGI [6] [µM]
O=C(Nc1cccc(-n2cc(-c3ccncc3)c(-c3ccc(O)c(Cl)c3)n2)c1)c1ccc(N2CCOCC2)c(C(F)(F)F)c1	1.34	> 50	2.35	> 50	1.05	> 50	> 50	> 50	1.24	4.32	2.75	> 50
Cc1ccc(C)c(N2C(=O)C(=O)c3c(C)ccc(C)c32)c1				42.2		37.7		> 100		54.8		39.6
N=C(N)c1ccc(-c2ccc(-c3ccc(Cl)c(Cl)c3)o2)nc1			1.61	3.15	0.559	> 100	1.89	3.62				
CCNC(=O)c1ccc2c(c1)nc(-c1ccc(Cl)cc1)n2-c1cc(C(C)(C)C)[nH]n1	2.94	40.7	4.53	18.2	1.06	9.32	3.72	34.9	2.82	11.6	2.97	10.8
NCC(=O)NC(CO)C(=O)O (configuration not stated)		> 100		> 100				> 100		> 100		> 100
CC#CC(=O)N[C@H]1CCCN(c2c(F)cc(C(N)=O)c3[nH]c(C)c(C)c23)C1	27.5	85	14.9	30.3	17.6	> 100	26.1	88.5	27.3	74.5	18.6	42
COc1cc(/C=N/Nc2ncnc3c2cnn3Cc2ccccc2)ccc1O	> 6.7	> 25	12.2	> 25	> 25	> 25	12.2	> 25	> 25	> 25	> 25	> 25
N#C/C(=C\c1ccc([N+](=O)[O-])s1)c1nc2cc(Br)ccc2s1	0.161	> 100	0.165	0.815	0.0856	1.77	0.719	> 100		> 100	0.142	0.323
COc1cc(CCNc2nc3cc(N)cc(N)c3nc2-c2ccccc2)cc(OC)c1	1.36	6.48	2.48	5.47	0.354	2.22	5.48	17.8	1.77	3.47	2	4.05
CCCN(CCC)c1ccc(/C=N/NC(=O)c2cccnc2)cc1	37.1	> 100	30.7	> 100	6.82	> 100	36.1	> 100	16.5	55.6		
COc1cc([N+](=O)[O-])c(OC)cc1-c1nc2n(c1/C(N)=N/C(=N)N)CCS2	> 100	> 100	> 100	> 100			50.4	> 100	37.6	> 100	> 100	> 100
